What was measured:
Nrf2 = Nrf2 and HO-1 immunoblots in H9C2 cells; assay type: cell-based, rat; conditions: H9C2, relative to DMSO vehicle
From the text: The bar graphs below represent the mean±SEM. Results were statistically different between c1 and DOX in both cases (p=0.002 and p=0.019), and more marginally so between c1 and DMSO (p=0.011 and p.=0.025), for Nrf2 and HO-1, respectively.

H9C2 cardiomyoblasts [1] = conditions: H9C2, 10 and 20 μM, 24 or 48 h; difference not significant at 48 h
Procedure: Cytotoxicity of DOX and prodrugs in H9C2 cardiomyoblasts. Media from cells exposed for 24 or 48 h to 10 or 20 µM of c1, c2, DOX or vehicle (DMSO, final concentration 0.1% in all samples) was centrifuged to remove cells and cell debris, and supernatants were assessed spectrophotometrically by lactose dehydrogenase (LDH) assay to evaluate release into the media as a measure of cytotoxicity (n=6 or more). *, p<0.05; **, p<0.01; ***, p<0.001; ****, p<0.0001.
Cytotoxicity of c1, c2 and DOX was evaluated by measuring the release of lactate dehydrogenase (LDH) into the culture medium over time.
H9C2 and 4T1 cells were plated at a density of 10,000 per well in 96-well plates. Twenty-four h after plating, cells were treated with 10 or 20 µM DOX (from 20 mM stock dissolved in DMSO, for 0.1% final DMSO) and were incubated for 24 or 48 h. The extracellular medium was centrifuged at 12,000×g for 5 min to pellet cellular debris, and the supernatants were assessed for release of lactate dehydrogenase (LDH) using a colorimetric activity assay (Invitrogen) as directed and spectral detection (Benchmark or BioRad microplate reader). Values were used to determine % cytotoxicity as described in the kit, using treatment with lysis buffer to release all LDH into the medium (defining 100% release) or cells without treatment (to define 0% release).

[2] = Time-dependent DOX release from prodrugs in presence of H2O2 (LCMS); assay type: physicochemical; conditions: prodrug 10 μM, H2O2 10 μM, ammonium bicarbonate buffer 0.1 M pH 7.4
Procedure: FIG. 1. Time-course for DOX release from prodrugs (10 μM) in ammonium bicarbonate buffer (0.1 M, pH 7.4) at room temperature and in the presence of H2O2 (10 μM). A calibration curve was used to determine the concentration of free DOX at each time point by LCMS. Plotted as the mean±standard error of the mean (SEM) from three independent experiments.
To confirm this reactivity, we incubated c1 (10 μM) with H2O2 (10 μM) at room temperature in ammonium bicarbonate buffer (0.1 M, pH 7.4). At various time points, an aliquot was removed and analyzed by LCMS. Using a calibration curve, we determined the percentage of released DOX over the course of two hours. […] For comparison, we also assessed the reactivity of c2 towards the same concentration of peroxides. Like c1, c2 also functioned as an H2O2-activated DOX prodrug, but with faster kinetics, as quantitative release of free DOX was realized within 60 min.
A stock solution of c1 (or c2, 10 mM) in DMSO and H2O2 (10 mM) in ammonium bicarbonate buffer (0.1M, pH 7.4) were prepared immediately prior to use. […] At various time points (0 min, 10 min, 35 min, 60 min, 80 min, 100 min, 120 min), a 1 mL (inject volume 60 μL) aliquot was removed and analyzed by LC-MS (using a C18 analytical column and eluting at 0.4 mL/min with a linear gradient (20-90% v/v) MeOH/H2O (0-2 min), followed by 90% v/v MeOH/H2O (2-19 min)). […]

caspase-3 = test: Caspase-3 cleavage immunoblot in H9C2 cells; conditions: H9C2, 10 or 20 μM, 24 h
Procedure: FIG. 6. […] H9C2 cells in culture were treated for 24 hr with c1, c2, DOX or vehicle (DMSO), then harvested into lysis buffer and immunoblotted for caspase-3. Data analyzed by ImageJ were used to assess the percent of the two bands present as the lower band.
We next evaluated apoptotic signaling through caspase-3 cleavage at 24 h to compare the experimental compounds.
To evaluate levels of caspase cleavage (using an antibody recognizing both cleaved and uncleaved, Cell Signaling, cat #9662), Nrf2 (antibody from Thermo Fisher, cat #PA5-27882), and HO-1 (antibody from Proteintech, cat #10701-1-AP), H9C2 cells were plated at a density of 450,000 per well in a 24-well plate, then treated 24 h later with 10 or 20 µM DOX and incubated another 24 h before harvesting. For some samples, 100 mM hydroxocobalamin (HO-Cbl) was added 5 min before drug treatment. Cells were harvested by removing media (and recovering any non-adherent cells by centrifugation for 5 min at 10,600×g, discarding the supernatant), and combining that with the 120 μL of lysis buffer added to each well. Lysis buffer [50 mM Tris-HCl at pH 8.0, with 100 mM NaCl, 100 µM diethylene triamine pentaacetic acid (DTPA), 20 mM β-glycerophosphate, 0.1% SDS, 0.5% Na Desoxycholate, and 0.5% Triton-X-100] was prepared by freshly adding protease and phosphatase inhibitors before use (1 mM PMSF, 10 μg/mL aprotinin, 1 mM Na3VO4, 10 mM NaF and 10 μg/mL leupeptin). Samples were further incubated on ice for 30 min, then centrifuged at high speed (20,800×g for 10 min) to remove cell debris, and supernatants were mixed with 5×SDS protein sample buffer for Western blot analysis following resolution of 40 μg per sample on 10% SDS-polyacrylamide gels. Protein concentrations of supernatants were determined using a BCA assay (Pierce). Antibodies were used at dilutions of 1:1000 (for HO-1 and caspase-3) or 1:3000 (for Nrf2).

H9C2 cardiomyoblasts [3] = test: Uptake into H9C2 cardiomyoblasts by live-cell confocal microscopy; assay type: cell-based, rat; conditions: imaging over 18 h
Procedure: FIG. 4. Uptake of DOX and prodrugs c1 and c2 by H9C2 cardiomyoblasts. H9C2 cells cultures grown overnight on chambered coverslips in media with 10% serum were switched to Fluorobrite DMEM imaging media supplemented with 5% serum and prepared for live-cell imaging on a Zeiss LSM 880 confocal microscope, then 10 µM of c1, c2, or DOX was added and images were taken every 10 min (averaged every 30 min) for 18 h. Approximately 20 cells present in each field of view were averaged for each sample and time point; normalized and averaged data from two replicates each±SEM were included for c1 and DOX. An earlier independent trial yielded very similar results (Fig. S1).
Uptake of DOX and prodrugs into H9C2 cardiomyoblasts. Before comparing the biological effects of treatments by DOX and prodrugs, it was important to know their time dependence of accumulation into the H9C2 cardiomyoblasts under investigation. For this, confocal microscopy of live cells in culture was used to track in real time the accumulation of the fluorescent molecules into the cells, allowing direct comparisons between c1, c2 and Dox. […] Thus, any biological effects observed using c1 rather than DOX will not be due to limited cellular uptake.
To evaluate drug uptake, H9C2 cells were plated at a density of 20,000 per well on 24 well #1.5 polymer chambered coverslips (Ibidi) in media including 10% FBS and allowed to adhere for ~20 h. Prior to imaging analysis, the media was replaced with Fluorobrite DMEM imaging media (Gibco) supplemented with 5% FBS. To 1 mL of media in each well was added either vehicle (DMSO), or a 20 mM stock solution of c1, c2, or DOX to give final concentrations of 10 or 20 µM drug and 0.1% DMSO. […] DOX and the prodrugs were detected with excitation by a 458 nm laser at 0.3% and emission from 535-648 nm.
Each position consisted of a 3 slice z-stack that was compressed with a maximum intensity projection for analysis. […] The mean intensity for both channels was calculated, normalized, and then averaged to 30 min time points.

SMILES	HO-1 expression (immunoblot) (Nrf2)	cytotoxicity (LDH release) (H9C2 cardiomyoblasts [1])	time to quantitative release of free DOX [2]	caspase-3 cleavage (caspase-3)	accumulation in cells compared with DOX (H9C2 cardiomyoblasts [3])
COc1cccc2c1C(=O)c1c(O)c3c(c(O)c1C2=O)C[C@@](O)(C(=O)CO)C[C@@H]3O[C@H]1C[C@H](N)[C@H](O)[C@H](C)O1 [DOX, Doxorubicin, reference compound]	completely suppressed both	more toxic than c1			
COc1cccc2c1C(=O)c1c(O)c3c(c(O)c1C2=O)C[C@@](O)(C(=O)CO)C[C@@H]3O[C@H]1C[C@H](NC(=O)OCc2ccc(B3OC(C)(C)C(C)(C)O3)cc2)[C@H](O)[C@H](C)O1 [c2]		intermediate toxicity but more similar to DOX than c1	≤ 60 min	neither c1 nor c2 at either 10 or 20 UM caused notable caspase-3 cleavage	as slow as or slower than Dox
